According to patent publication US20100175140A1, “Leucine-rich repeat kinase (LRRK2) drosophila model for parkinson's disease: wildtype1 (WT1) and G2019S mutant flies” (The Johns Hopkins University, priority 2008, published 2010):

System: ddc-GAL4;G2019S-2 flies
Experiment: Climbing assay (negative geotaxis) of LRRK2-G2019S transgenic flies treated with L-DOPA
Format: in vivo, Drosophila melanogaster
Conditions: 5 weeks of age, 1 mM L-DOPA for 10 days, P<0.05 vs untreated (FIG. 2E)
Source text: We determined locomotor ability using a climbing assay (negative geotaxis assay) as described previously (23). Cohorts of 60 flies from each genotype were subjected to the assay weekly from 1 week to the time of death. The tested flies were age-matched, randomly selected, anesthetized, and placed in a vertical plastic column (length, 25 cm; diameter, 1.5 cm). After a 30-min recovery from CO2 exposure, flies were gently tapped to the bottom of the column. We counted and calculated the percentage of flies that could climb to or above the median line of the cylinder in 10 seconds. Each week, the assay was repeated three times.

N[C@@H](Cc1ccc(O)c(O)c1)C(=O)O [L-DOPA]
locomotor activity (climbing assay): significantly improved
